From patent US20240301141A1, “SILICONE POLYMER COMPOUND AND TRANSDERMAL DELIVERY SYSTEM COMPRISING SAME” (UNIVERSITY-INDUSTRY COOPERATION GROUP OF KYUNG HEE …, priority 2021, published 2024)

How the values were obtained:
red blood cells = assay: Hemolysis analysis of mouse red blood cells; type: cell-based; conditions: 37° C., 1 hour, absorption 492 nm
Description: In addition, for hemolysis analysis, a blood sample was obtained from the heart of the mouse anesthetized with isoflurane, and then centrifuged at 4° C. (3000 rpm, 3 min) with cold 1×PBS (1 mL, 3 times) to collect red blood cells. The purified red blood cells were treated with 100 μL of 8% (v/v) each of PBS and the C2 compound and further incubated at 37° C. for 1 hour. The mixture was then collected using centrifugation at 4° C.

[1] = test system: B16F10 (mouse murine melanoma cell line) cells
Description: Specifically, B16F10 (mouse murine melanoma cell line) cells were transplanted into the left or right thigh (subcutaneously) of the mouse (6-week-old female Balb/c nude) on day 0 to induce melanoma tumor, and then after 10 days later (tumor size=about 200 mm^3), melanoma model mice were divided into 3 groups (5 mice per group), and each group was administered with 100 μL of PBS, SN-38 (3 mM), or C2+SN-38 (C2 compound encapsulated with SN-38 anticancer agent) by topical application on days 10, 12, 13, and 14 ((a) of FIG. 27). In order to determine toxicity and therapeutic effects in melanoma model mice for 16 days, changes in body weight and tumor volume were measured every 2 to 3 days. At the end of the experiment (day 15), the body of each mouse was photographed with a digital camera to determine the shape and size of the tumor, and at the end of the experiment (day 16), the tumor was extracted from the mouse. The extracted tumor tissue (harvested tumor) was photographed with a digital camera, and the size and volume thereof were measured. In addition, for hemolysis analysis, red blood cells purified from the blood sample obtained from the mouse heart were treated with 100 μL of PBS (negative control), SN-38 (3 mM), C2+SN-38, and Triton-X (0.1% (v/v); positive control) at 8% (v/v), respectively, and further incubated at 37° C. for 1 hour, and then the mixture was centrifuged at 4° C. (3000 rpm, 3 min) and the UV/vis absorption peak (492 nm) of the final obtained supernatant was measured at 25° C.

mice = assay: Biocompatibility / immunotoxicity in mice (application behind the ears); conditions: mouse, in vivo
Description: Specifically, 25 μL each of phosphate-buffered saline (PBS) as a negative control, eugenol (Eug) inducing immunotoxicity as a positive control, and a C2 compound in the PDDS series were applied behind the ears of mice for 3 days, and after 6 days, the change in body weight, the feed intake and water intake, the weight of auricular lymph nodes, the number of lymph node cells, the stimulation index, and the concentrations of histamine and immunoglobulin E in the blood were measured.

[2] = Water contact angle on coated slide glass; type: physicochemical; conditions: distilled water on coated slide glass
Description: Specifically, a monomer and PDDS series compounds were applied onto a slide glass from Marienfeld using a 100 μL pipette, respectively, and then the monomer and the PDDS series were uniformly coated on the slide glass while the slide glass was tilted left and right. The monomer and the PDDS series were coated for about 1 hour in a fume hood, and then 100 μL each of the monomer and PDDS series were dropped again, and coated without an empty portion of the slide glass by repeating the process two more times. Thereafter, distilled water was dropped on the surface of the coated glass slide using a contact angle meter from Kruss and the contact angles were analyzed.

skin of mouse = assay: Skin penetration efficiency, fluorescence of oil red O in skin sections; type: in vivo
Description: Specifically, 100 μL each of oil red O-loaded C2 compound (C2; […]) and oil red O (OR; 100 μL, stock solution: 24 μM in PBS (1% ethanol)) were applied to the skin, and after 24 and 48 hours, the skin tissue was sectioned, and then the fluorescence of oil red O was tracked (excitation: 559 nm, detection: 636±20 nm) using a fluorescence microscope, and quantified and plotted using the Image-J program.
Here, (b, c) of FIG. 25 and (e, f) of FIG. 25 show the fluorescence intensity plot of Oil red O or the C2 compound (C2) loaded with Oil red O along the yellow dotted line in the images of (a) of FIG. 25 and (d) of FIG. 25, respectively.

CCc1c2c(nc3ccc(O)cc13)-c1cc3c(c(=O)n1C2)COC(=O)[C@]3(O)CC [SN-38, 7-ethyl-10-hydroxycamptothecin]
hemolysis rate in red blood cells (red blood cells): severe hemolysis | change in body weight ([1]; melanoma xenograft mouse, topical on days 10, 12, 13, 14): no significant change | average tumor volume of extracted tumor ([1]; tumor extracted day 16): 1689±498.6 mm^3 | tumor growth / tumor size of extracted tumor tissue ([1]; tumor extracted day 16): only slightly reduced tumor growth

C=CCc1ccc(O)c(OC)c1 [eugenol]
feed intake and water intake (mice): took less feed and water | number of lymph node cells (BrdU assay) (mice): statistically significant increase | stimulation index (mice): statistically significant increase

C[Si]1(C)CC[Si](C)(C)O1 [monomer, 2,2,5,5-tetramethyl-2,5-disila-1-oxacyclopentane]
Contact angle [2]: 69.0±1.2 °

Cc1ccc(C)c(N=Nc2cc(C)c(N=Nc3c(O)ccc4ccccc34)cc2C)c1 [oil red O]
absorption of oil red O in skin tissue (fluorescence) (skin of mouse; 24 hours after application): hardly absorbed into the subcutaneous tissue | absorption of oil red O in skin tissue (fluorescence) (skin of mouse; 48 hours after application): hardly absorbed into the subcutaneous tissue
